From the supplement of paper PMC10307832

Key:
Test in all cases: relative viability (nuclei count vs DMSO), 5 days (fraction); higher = more cells survive
[1] = compound: O=c1[nH]cc(F)c(=O)[nH]1 [5-Fluorouracil] + C[C@@H](Oc1cc(-c2cnn(C3CCNCC3)c2)cnc1N)c1c(Cl)ccc(F)c1Cl [Crizotinib] (partner 1 µM)
Method in brief: (§1)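 Dosing by pin tool came one day after lung cancer cell lines were seeded in 1536-well plates, using either one drug or a fixed anchor-drug dose plus five library-drug doses (not always all listed) in √10 steps. After 5 days, nuclei were counted on 4× images. Relative viability is treated-well nuclei count divided by vehicle-well nuclei count, and values are medians of duplicate plates.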

[2] = compound: O=c1[nH]cc(F)c(=O)[nH]1 [5-Fluorouracil] + Cc1nc(NC(=O)N2CCC[C@H]2C(N)=O)sc1-c1ccnc(C(C)(C)C(F)(F)F)c1 [Alpelisib] (partner 2 µM)
Method in brief: as §1

[3] = compound: O=c1[nH]cc(F)c(=O)[nH]1 [5-Fluorouracil] + COc1cc2c(Oc3ccc(NC(=O)C4(C(=O)Nc5ccc(F)cc5)CC4)cc3F)ccnc2cc1OCCCN1CCOCC1 [Foretinib] (partner 0.25 µM)
Method in brief: as §1

[4] = compound: O=c1[nH]cc(F)c(=O)[nH]1 [5-Fluorouracil] + Cc1cc(Nc2cc(N3CCN(C)CC3)nc(Sc3ccc(NC(=O)C4CC4)cc3)n2)n[nH]1 [Tozasertib] (partner 0.1 µM)
Method in brief: as §1

5-Fluorouracil + OSI-027 = compound: O=c1[nH]cc(F)c(=O)[nH]1 [5-Fluorouracil] + COc1cccc2cc(-c3nc([C@H]4CC[C@H](C(=O)O)CC4)n4ncnc(N)c34)[nH]c12 [OSI-027] (partner 0.5 µM)
Method in brief: as §1

Cell Line | relative viability ([1]; first compound 0.02 µM) | relative viability ([1]; first compound 0.2 µM) | relative viability ([1]; first compound 0.6325 µM) | relative viability ([1]; first compound 2 µM) | relative viability ([2]; first compound 0.02 µM) | relative viability ([2]; first compound 0.2 µM) | relative viability ([2]; first compound 0.6325 µM) | relative viability ([2]; first compound 2 µM) | relative viability ([3]; first compound 0.02 µM) | relative viability ([3]; first compound 0.2 µM) | relative viability ([3]; first compound 0.6325 µM) | relative viability ([3]; first compound 2 µM) | relative viability ([4]; first compound 0.02 µM) | relative viability ([4]; first compound 0.2 µM) | relative viability ([4]; first compound 0.6325 µM) | relative viability ([4]; first compound 2 µM) | relative viability (5-Fluorouracil + OSI-027; first compound 0.02 µM) | relative viability (5-Fluorouracil + OSI-027; first compound 0.2 µM) | relative viability (5-Fluorouracil + OSI-027; first compound 0.6325 µM) | relative viability (5-Fluorouracil + OSI-027; first compound 2 µM)
201T | 1.02 | 0.948 | 0.384 | 0.287 | 0.979 | 0.873 | 0.325 | 0.332 | 1.18 | 0.509 | 0.211 | 0.176 | 0.916 | 0.477 | 0.369 | 0.313 | 0.964 | 0.274 | 0.161 | 0.128
A549 | 0.783 | 0.517 | 0.295 | 0.107 | 0.587 | 0.476 | 0.256 | 0.113 | 0.992 | 0.945 | 0.517 | 0.156 |  |  |  |  |  |  |  | 
A-427 | 0.799 | 0.965 | 0.77 | 0.378 | 1.06 | 1.12 | 0.957 |  | 0.961 | 1.19 | 1.08 | 0.625 | 0.181 |  | 0.189 | 0.159 | 0.461 | 0.557 | 0.359 | 0.259
ABC-1 | 1.17 | 1.05 | 0.967 | 0.871 | 1.11 | 1.16 | 0.896 | 0.92 | 1.05 | 1.12 | 0.991 | 0.548 | 0.163 | 0.184 | 0.171 | 0.195 | 0.453 | 0.518 | 0.53 | 0.261
BEN | 1.02 | 0.719 | 0.615 | 0.718 | 0.987 | 0.873 | 0.657 | 0.692 | 0.63 | 0.609 | 0.548 | 0.587 | 0.43 | 0.479 | 0.491 | 0.535 | 0.303 | 0.312 | 0.315 | 0.326
CAL-12T | 0.802 | 0.592 | 0.444 | 0.312 | 1.47 | 1.22 | 1.02 | 0.425 | 1.21 | 1.21 | 1.07 | 0.434 | 0.337 | 0.385 | 0.316 | 0.221 | 0.771 | 0.625 | 0.385 | 0.352
COR-L23 | 0.789 | 0.556 | 0.478 | 0.148 | 0.862 | 0.661 | 0.491 | 0.209 | 0.982 | 0.886 | 0.522 | 0.289 |  |  |  |  | 0.794 | 0.539 | 0.323 | 0.245
COR-L 105 | 0.852 | 0.806 | 0.647 | 0.453 | 0.725 | 1.11 | 0.874 | 0.449 | 1.2 | 1.14 | 0.929 | 0.595 | 0.303 | 0.328 | 0.323 | 0.26 | 0.649 | 0.899 | 0.66 | 0.443
Calu-6 | 0.872 | 0.859 | 0.693 | 0.427 | 1.03 | 0.976 | 0.684 | 0.448 | 0.853 | 0.941 | 0.871 | 0.491 |  |  |  |  |  |  |  | 
ChaGo-K-1 | 1.15 | 1.06 | 0.821 | 0.711 |  |  |  |  | 0.975 | 0.874 | 0.724 | 0.557 |  |  |  |  | 0.608 | 0.536 | 0.401 | 0.425
EBC-1 | 0.177 | 0.214 | 0.206 | 0.202 | 0.865 | 0.841 | 0.792 | 0.612 | 0.101 | 0.106 | 0.0923 | 0.108 |  |  |  |  |  |  |  | 
EKVX | 0.842 |  | 0.181 |  | 0.7 |  | 0.153 | 0.147 | 0.707 | 0.321 | 0.177 | 0.149 | 0.35 | 0.172 | 0.147 | 0.131 |  |  | 0.148 | 0.134
EMC-BAC-2 | 0.871 | 0.788 | 0.764 | 0.767 | 0.733 | 0.773 | 0.801 | 0.768 | 1.1 | 1.01 | 1.05 | 0.963 | 0.293 | 0.292 | 0.33 | 0.287 | 0.363 | 0.407 | 0.376 | 0.361
EPLC-272H | 0.841 | 0.614 | 0.346 | 0.228 | 0.91 | 0.834 | 0.429 | 0.371 | 0.665 | 0.446 | 0.296 | 0.163 | 0.292 | 0.223 | 0.259 | 0.222 | 0.272 | 0.257 | 0.263 | 0.212
H3255 | 0.835 | 0.846 | 0.831 | 0.561 | 0.721 | 0.816 | 0.833 | 0.496 | 0.861 | 1.08 | 0.872 | 0.656 | 0.63 | 0.663 | 0.652 | 0.497 | 0.609 | 0.686 | 0.699 | 0.574
